Where only a bound is given, the exact number is not on record here.

One test addresses T1, rabbit reticulocyte 15-LO (Oryctolagus cuniculus, UniProt P12530).
T1 construct: Fifteen-lipoxygenase was obtained from phenylhydrazine-treated rabbits and purified per the method of Rapoport; from tissue; host or cells: reticulocytes of phenylhydrazine-treated rabbits
T1 sequence (P12530 1-663): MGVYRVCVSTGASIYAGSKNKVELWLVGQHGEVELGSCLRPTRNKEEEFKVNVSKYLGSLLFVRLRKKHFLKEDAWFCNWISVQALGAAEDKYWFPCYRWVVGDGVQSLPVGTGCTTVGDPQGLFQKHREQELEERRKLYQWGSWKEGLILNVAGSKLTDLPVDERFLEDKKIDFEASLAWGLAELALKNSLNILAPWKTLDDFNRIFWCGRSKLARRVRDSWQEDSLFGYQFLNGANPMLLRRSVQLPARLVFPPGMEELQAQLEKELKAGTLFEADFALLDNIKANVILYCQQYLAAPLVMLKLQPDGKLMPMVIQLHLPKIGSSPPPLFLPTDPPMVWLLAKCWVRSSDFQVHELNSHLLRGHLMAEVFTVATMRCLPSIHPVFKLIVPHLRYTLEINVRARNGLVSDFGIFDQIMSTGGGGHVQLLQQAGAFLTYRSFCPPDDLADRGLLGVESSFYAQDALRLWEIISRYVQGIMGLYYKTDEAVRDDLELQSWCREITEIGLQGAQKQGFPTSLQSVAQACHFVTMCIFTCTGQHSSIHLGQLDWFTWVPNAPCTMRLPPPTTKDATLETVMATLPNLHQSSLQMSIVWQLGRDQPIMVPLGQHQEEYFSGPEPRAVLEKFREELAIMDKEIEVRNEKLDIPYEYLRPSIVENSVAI
Description: Rabbit Reticulocyte 15-LO Assay (h15LO). The test is classed as biochemical. The following applies: 0.25 h; Table 2; @ 10 μM; read-out: h15LO % @ 10 μM. As for the experimental part:
Rabbit Reticulocyte 15-LO Assay (h15LO)
The present 15-LO assay takes advantage of the ability of 15-LO to oxidize the fatty acid linoleic acid to the hydroperoxy fatty acid 13-(S)HPODE, resulting in the formation of a conjugated diene. The 15-LO inhibitors are incubated with 15-LO enzyme in the presence of linoleic acid substrate. The initial reaction is compared to an uninhibited (maximal) reaction to yield % inhibition. […] This prevents artificial nonenzyme lipid peroxidation and product breakdown in the sample. 13-HPODE is quantitated by comparing peak areas of individual samples with those from a standard curve generated using authentic 13-HODE. This assay is performed using 2U of rabbit reticulocyte 15-LO in the presence of 174 μM linoleic acid. The reaction is incubated for 15 minutes at 4° C. The total reaction volume is 100 μL in PBS containing 0.2% Na cholate.
Fifteen-lipoxygenase was obtained from phenylhydrazine-treated rabbits and purified per the method of Rapoport (Rapoport S. M., Schewe T., Wiesner R., et al. The lipoxygenase of reticulocytes. Purification, characterization, and biological dynamics of the lipoxygenase; its identity with the respiratory inhibitors of the reticulocyte. European Journal of Biochemistry, 1979;96:545-561). The following chemicals were purchased and used as received: linoleic acid (NUJCheck Prep), 13-HPODE (Biomol Research Labs), sodium cholate (Sigma), trimethyl phosphite (Fluka Chemicals).
As to `O=C(Nc1ccccc1)c1cc(NC(=S)Nc2cc(Cl)cc(Cl)c2)ccc1F` [Example 101, 5-[3-(3,5-Dichlorophenyl)-thioureido]-2-fluoro-N-phenyl-benzamide], the inhibition at 10 µM came to 66%.

Still in this test, the particulars now being: Table 1; 2U rabbit reticulocyte 15-LO, 174 μM linoleic acid, 15 minutes at 4° C.
What is called IC50 is the midpoint of a concentration-inhibition curve. Lower therefore signals inhibition by little substance. With `COc1ccc(NC(=O)c2ccccc2)cc1N` [Example 21, N-(3-Amino-4-methoxyphenyl)-benzamide], the IC50 was 2130 nM.

Still in this test, the particulars now being: Table 2; 2U rabbit reticulocyte 15-LO, 174 μM linoleic acid, 15 minutes at 4° C.
Consider `O=C(Nc1ccccc1)c1cccc(Nc2cc(Cl)cc(Cl)c2)c1` [Example 26, 3-(3,5-Dichloro-phenylamino)-N-phenyl-benzamide], for which the IC50 was determined as 1600 nM.
With `COc1ccc(C(=O)Nc2ccccc2)cc1Nc1cccc(C(F)(F)F)c1` [Example 30, 3-(3-Trifluoromethyl-phenylamino)-4-methoxy-N-phenyl-benzamide], the IC50 came out at 10 nM.
`Cc1ccc(C(=O)Nc2ccccc2)cc1Nc1ccccc1` [Example 38, 3-Phenylamino-4-methyl-N-phenyl-benzamide] showed a half-inhibitory concentration (IC50) of more than 3000 nM.
On the same count and under the same terms, the result for `COc1ccc(C(=O)Nc2ccc(Cl)c(Cl)c2)cc1Nc1cccc(C(F)(F)F)c1` [Example 47, 4-Methoxy-3-(3-trifluoromethyl-phenylamino)-N-(3,4-dichlorophenyl)-benzamide] reads 100 nM; that for `COc1ccc(C(=O)Nc2ccccc2)cc1NC(=S)Nc1ccc(Cl)c(C(F)(F)F)c1` [Example 73, 3-[3-(4-Chloro-3-trifluoromethylphenyl)-thioureido]-4-methoxy-N-phenyl-benzamide], 16 nM; that for `COc1ccc(C(=O)Nc2ccc(F)c(F)c2)cc1NS(=O)(=O)c1cc(Cl)cc(Cl)c1` [Example 116, 3-(3,5-Dichloro-benzenesulfonylamino)-4-methoxy-N-(3,4-difluorophenyl)-benzamide], 20 nM.
Still for that read-out and setting: the result for `COc1ccc(C(=O)Nc2ccccc2)cc1NS(=O)(=O)c1ccc2ccccc2c1` [Example 140, 3-(Naphthalene-2-sulfonylamino)-4-methoxy-N-phenyl-benzamide] reads 39 nM.
The same measure, in the same setting: the result for `O=C(Nc1ccccc1)c1ccc(O)c(Nc2ccccc2)c1` [Example 145, 4-Hydroxy-3-phenylamino-N-phenyl-benzamide] reads 180 nM.
For `CCOC(=O)c1cccc(NC(=O)c2ccc(OC)c(N)c2)c1` [Example 148, 3-(3-Amino-4-methoxy-benzoylamino)-benzoic Acid Ethyl Ester], the half-inhibitory concentration (IC50) was determined as 613 nM.
On the same count and under the same terms, the result for `COc1ccc(NC(=O)c2ccc(F)c(F)c2)cc1N` [Example 150, 3,4-Difluoro-N-(3-amino-4-methoxy-phenyl)-benzamide] reads 205 nM; that for `COc1ccc(C(=O)Nc2ccccc2)cc1Nc1ccc(F)cc1` [Example 153, 3-(4-Fluoro-phenylamino)-4-methoxy-N-phenyl-benzamide], 54 nM; that for `COc1ccc(NC(=O)c2ccc(Cl)c(Cl)c2)cc1Nc1cccc(C(F)(F)F)c1` [Example 160, 3,4-Dichloro-N-[4-methoxy-3-(3-trifluoromethyl-phenylamino)-phenyl]-benzamide], 119 nM.
The same measure, in the same setting: the result for `COC(=O)c1cccc(NC(=S)Nc2cc(C(=O)Nc3ccccc3)ccc2OC)c1` [Example 161, 3-[3-(2-Methoxy-5-phenylcarbamoyl-phenyl)-thioureido]-benzoic Acid Methyl Ester] reads 22 nM; that for `COc1ccc(C(=O)Nc2ccc(F)c(F)c2)cc1NC(=S)Nc1cccc(C(=O)O)c1` [Example 162, 3-{3-[5-(3,4-Difluoro-phenylcarbamoyl)-2-methoxy-phenyl]-thioureido}-benzoic Acid], 55 nM; that for `COc1ccc(NC(=O)c2ccc(F)c(F)c2)cc1NC(=S)Nc1ccc(C(=O)O)cc1` [Example 168, 4-{3-[5-(3,4-Difluoro-benzoylamino)-2-methoxy-phenyl]-thioureido}-benzoic Acid acid], 109 nM.
The same measure, in the same setting: the result for `COc1ccc(NC(=O)c2ccc(F)c(F)c2)cc1NC(=S)Nc1cccc(C(=O)O)c1` [Example 169, 3-{3-[5-(3,4-Difluoro-benzoylamino)-2-methoxy-phenyl]-thioureido}-benzoic Acid] reads 246 nM; that for `COc1ccc(NC(=O)Nc2ccc(Cl)c(Cl)c2)cc1NC(=S)Nc1cc(Cl)cc(Cl)c1` [Example 171, 1-(3,4-Dichloro-phenyl)-3-{3-[3-(3,5-dichloro-phenyl)-thioureido]-4-methoxy-phenyl}-urea], 275 nM.

Still in this test, the particulars now being: Table 2; concentration not given.
Take `Nc1cc(C(=O)Nc2ccccc2)ccc1OC(F)(F)F` [Example 147, 3-Amino-4-trifluoromethoxy-N-phenyl-benzamide]: the “h15LO, value given as bare %” value was 37.05%.
Same read-out and setting: for `Nc1cc(NC(=O)c2ccc(F)c(F)c2)ccc1F` [Example 151, 3,4-Difluoro-N-(3-amino-4-fluoro-phenyl)-benzamide] the value was 82.66%; for `COc1ccc(NC(=O)Nc2ccc(Cl)c(Cl)c2)cc1N` [Example 152, 1-(3-Amino-4-methoxy-phenyl)-3-(3,4-dichloro-phenyl)-urea], 57.49%; for `COc1ccc(C(=O)Nc2ccc(F)cc2)cc1Nc1cc(Cl)cc(Cl)c1` [Example 154], 97.66%.
The same measure, in the same setting: for `COc1ccc(C(=O)Nc2ccc(F)cc2)cc1Nc1ccc(F)cc1` [Example 155, 3-(4-Fluoro-phenylamino)-4-methoxy-N-(4-fluoro-phenyl)-benzamide] the value was 94.44%; for `COC(=O)c1cccc(NC(=O)c2ccc(OC)c(Nc3cccc(C(F)(F)F)c3)c2)c1` [Example 156, 3-[4-Methoxy-3-(3-trifluoromethyl-phenylamino)-benzoylamino]-benzoic Acid Methyl Ester], 90.33%; for `CCOC(=O)c1cccc(NC(=O)c2ccc(OC)c(Nc3cccc(C(F)(F)F)c3)c2)c1` [Example 157, 3-[4-Methoxy-3-(3-trifluoromethyl-phenylamino)-benzoylamino]-benzoic Acid Ethyl Ester], 78.83%.
Still for that read-out and setting: for `O=C(Nc1ccccc1)c1ccc(OC(F)(F)F)c(Nc2cccc(C(F)(F)F)c2)c1` [Example 158, 4-Trifluoromethoxy-3-(3-trifluoromethyl-phenylamino)-N-phenyl-benzamide] the value was 48.28%.
On to `O=C(Nc1ccc(F)cc1)c1ccc(OC(F)(F)F)c(Nc2cccc(C(F)(F)F)c2)c1` [Example 159, 4-Trifluoromethoxy-3-(3-trifluoromethyl-phenylamino)-N-(4-fluoro-phenyl)-benzamide], for which the “h15LO, value given as bare %” value is listed as 44.58%.
The same measure, in the same setting: for `COc1ccc(C(=O)Nc2ccc(F)c(F)c2)cc1NC(=S)Nc1ccc(S(=O)(=O)[O-])cc1.[Na+]` [Example 165, 4-{3-[5-(3,4-Difluoro-phenylcarbamoyl)-2-methoxy-phenyl]-thioureido}-benzenesulfonic Acid, Sodium Salt] the value was 98.51%; for `COc1ccc(C(=O)Nc2ccc(F)cc2)cc1NC(=S)Nc1ccc(C(=O)O)cc1` [Example 166, 4-{3-[5-(4-Fluoro-phenylcarbamoyl)-2-methoxy-phenyl]-thioureido}-benzoic Acid], 98.11%; for `COc1ccc(C(=O)Nc2ccc(F)cc2)cc1NC(=S)Nc1cccc(C(=O)O)c1` [Example 167, 3-{3-[5-(4-Fluoro-phenylcarbamoyl)-2-methoxy-phenyl]-thioureido}-benzoic Acid], 96.22%.
In the case of `O=C(Nc1ccc(F)c(NC(=S)Nc2cc(Cl)cc(Cl)c2)c1)c1ccc(F)c(F)c1` [Example 170, N-{3-[3-(3,5-Dichloro-phenyl)-thioureido]-4-fluoro-phenyl}-3,4-difluoro-benzamide], the “h15LO, value given as bare %” value is on record as 99.53%.
Same read-out and setting: for `COC(=O)c1cccc(NC(=S)Nc2cc(NC(=O)Nc3ccc(Cl)c(Cl)c3)ccc2OC)c1` [Example 172, 3-(3-{5-[3-(3,4-Dichloro-phenyl)-ureido]-2-methoxy-phenyl}-thioureido)-benzoic Acid Methyl Ester] the value was 89.03%.

Source of the values: US6528528B2 (Warner-Lambert Company, priority 1997, dated 2003).
